From the NIST ThermoML archive (doi:10.1016/j.jct.2005.03.002)

Test: xn = mol fraction of the nth substance listed
Conditions: 101.33 kPa, Liquid

CCOS(=O)(=O)[O-].CCn1cc[n+](C)c1 [1-ethyl-3-methylimidazolium ethyl sulfate] + O
mass density [kg/m3]
Conditions	278.2 K	288.2 K	298.2 K	308.2 K	318.2 K	328.2 K	338.2 K
x2 = 0	1243	1236.2	1229.6	1223	1216.2	1209.9	1203.7
x2 = 0.0503	1242.6	1235.5	1229	1222.6	1216.2	1209.8	1203.6
x2 = 0.0983	1241.6	1234.7	1227.9	1221.6	1215.1	1208.6	1202.5
x2 = 0.1495	1240.2	1233.5	1226.9	1220.5	1213.9	1207.5	1201.2
x2 = 0.1996	1239.2	1232.7	1226.2	1219.5	1213	1206.6	1200.1
x2 = 0.2505	1238.3	1231.1	1224.7	1218.3	1211.7	1205.3	1198.7
x2 = 0.2999	1236.7	1229.8	1223.1	1216.6	1210.1	1203.8	1198
x2 = 0.3504	1235.6	1228.5	1221.8	1215.3	1208.7	1202.4	1196.1
x2 = 0.3987	1233.4	1226.6	1220.1	1213.4	1206.8	1200.3	1194.3
x2 = 0.4505	1231.1	1224.4	1218	1211.2	1204.6	1198.6	1192.2
x2 = 0.4994	1228.7	1222	1215.4	1208.8	1202.2	1196.2	1189.9
x2 = 0.5495	1225.8	1219.1	1212.3	1205.8	1199.4	1193	1186.8
x2 = 0.6	1222.1	1215.3	1208.7	1202	1195.6	1189.2	1183
x2 = 0.6504	1217.2	1210.7	1203.8	1197.4	1190.8	1184.4	1178
x2 = 0.6999	1211.5	1204.7	1198.3	1191.5	1184.7	1178.2	1171.8
x2 = 0.7502	1203.2	1196.8	1190	1183.3	1176.6	1170	1163.8
x2 = 0.8	1192.4	1185.7	1178.9	1172.4	1165.6	1159.1	1153.1
x2 = 0.8499	1176.4	1169.9	1163.4	1156.8	1150	1143.9	1137.8
x2 = 0.9	1149.2	1142.9	1136.6	1130.3	1124.4	1117.8	1112.4
x2 = 0.94	1107.2	1101.8	1096.4	1090.8	–	–	–
